US5811512A, “Non-peptide peptidomimetics and related cyclic hexapeptides” (The Trustees of the University of Pennsylvania, priority 1996, dated 1998)
Like-named read-outs stand apart in the source and are kept apart here.

Experiments:
[1] = molecular target: T1, human neurokinin-1 receptor (NK1R) (Homo sapiens, UniProt P25103); assay: Substance P receptor binding: 125I-substance P displacement from human NK1R expressed in COS cells; conditions: 125I-SP, COS cells expressing human NK1R; read-out: IC50 (concentration required to inhibit the binding of substance P to the human neurokinin-1 receptor by 50%)
T1 construct: the cDNA for the human NK1R was cloned into the expression vector pCDM9; expressed in transfected cells; host or cells: COS cells (transient, electroporation, vector pCDM9)
Method: The affinity of a variety of compounds for the substance P receptor was determined employing the following procedure.
A. Receptor Expression in COS
To express the cloned human neurokinin-1 receptor (NK1R) transiently in COS, the cDNA for the human NK1R was cloned into the expression vector pCDM9 which was derived from pCDM8 (Invitrogen) by inserting the ampicillin resistance gene (nucleotide 1973 to 2964 from Bluescript SK+) into the Sac II site. Transfection of 20 μg of the plasmid DNA into 10 million COS cells was achieved by electroporation in 800 μl of the transfection buffer ([…], 1.2 mM MgCl2, 2.4 mM K2 HPO4, 0.6 mM KH2 PO4, 10 nM glucose, 10 mM HEPES pH 7.4) at 260V and 950 μF using the IBI Genezapper (IBI, New Haven, Conn.). The cells were incubated in 10% fetal calf serum, 2 mM glutamine, 100 U/ml penicillin-streptomycin, and 90% DMEM media (Gibco, Grand Island, N.Y.) in 5% CO2 at 37° C. for three days before the binding assay.
B. Assay Protocol using COS
The binding assay of human NK1R expressed in COS cells is based on the use of ^125 I-substance P (^125 I-SP, from DuPont, Boston, Mass.) as a radioactively labeled ligand which competes with unlabeled substance P or any other ligand for binding to the human NK1R. Monolayer cell cultures of COS were dissociated by the non-enzymatic solution (Specialty Media, Lavallette, N.J.) and resuspended in appropriate volume of the bind buffer (50 mM Tris pH 7.5, 5 mM MnCl2, 150 mM NaCl, 0.04 mg/ml bacitracin, 0.004 mg/ml leupeptin, 0.2 mg/ml BSA, 0.01 mM phosphoramidon) such that 200 μl of the cell suspension would give rise to about 10,000 cpm of specific ^125 I-SP binding (approximately 50,000 to 200,000 cells). In the binding assay, 200 μl of cells were added to a tube containing 20 μl of 1.5 to 2.5 nM of ^125 I-SP and 20 μl of unlabeled substance P or any other test compound. The tubes were incubated at 4° C. or at room temperature for 1 hour with gentle shaking. The bound radioactivity was separated from unbound radioactivity by GF/C filter (Brandel, Gaithersburg, Md.) which was pre-wetted with 0.1 polyethylenimine. The filter was washed with 3 ml of wash buffer (50 Tris pH 7.5, 5 mM MnCl21 150 mM NaCl) three times and its radioactivity was determined by gamma counter.
A variety of compounds were tested according to the COS cell procedure. The concentration of compound required to inhibit the binding of substance P to the human neurokinin-1 receptor by 50% was measured.

SRIF receptor = SRIF receptor affinity: displacement of 125I-CGP-23996 from AtT-20 cells; format: binding; conditions: displacement of 125I-CGP-23996, AtT-20 cells
Method: The affinity of a variety of compounds for the SRIF receptor was determined by studying the displacement of ^125 I-CGP-23996 from AtT-20 cells using the method generally in accordance with Raynor and Reisine, Journal of Pharmacology and Experimental Therapeutics, 1989, 251;2, 510.

[2] = test system: somatostatin receptors of AtT-20 cells; conditions: read-out: IC50 for binding somatostatin receptors of AtT-20 cells, cited from earlier work
β-adrenergic receptor = assay: Radioligand displacement from AtT-20 and brain cells, β-adrenergic receptor; format: binding; conditions: 125I-CYP (0.1 nM)
Opiate Receptor = assay: Radioligand displacement from brain cells, opiate receptor; format: binding; conditions: 3H-naloxone (0.5 nM)
Dopamine Receptor = assay: Radioligand displacement from brain cells, dopamine receptor; format: binding; conditions: 3H-spiperone (0.1 nM)
Muscarinic cholingeric = format: binding; conditions: 3H-QNB (0.1 nM)
β-adrenergicreceptor = conditions: AtT-20 cells; cited from earlier work

T1 sequence (P25103 whole entry): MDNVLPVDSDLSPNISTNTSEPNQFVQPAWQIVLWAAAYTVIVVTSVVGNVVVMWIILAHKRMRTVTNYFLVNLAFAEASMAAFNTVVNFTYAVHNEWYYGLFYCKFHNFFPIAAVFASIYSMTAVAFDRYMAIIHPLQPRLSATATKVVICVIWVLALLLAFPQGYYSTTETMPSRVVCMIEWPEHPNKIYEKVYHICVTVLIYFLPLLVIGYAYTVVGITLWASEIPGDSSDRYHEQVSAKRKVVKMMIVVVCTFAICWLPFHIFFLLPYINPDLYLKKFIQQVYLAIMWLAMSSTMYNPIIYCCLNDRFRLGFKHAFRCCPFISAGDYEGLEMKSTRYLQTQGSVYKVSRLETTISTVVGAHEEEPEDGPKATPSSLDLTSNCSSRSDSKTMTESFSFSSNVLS

| Compound | IC50 [1] | IC50 (SRIF receptor) | IC50 [2] | Binding Inhibition (β-adrenergic receptor; AtT-20) | Binding Inhibition (β-adrenergic receptor; Brain) | Binding Inhibition (Opiate Receptor) | Binding Inhibition (Dopamine Receptor) | Binding Inhibition (Muscarinic cholingeric; AtT-20) | Binding Inhibition (Muscarinic cholingeric; Brain) | concentration required for β-adrenergic receptor binding relative to somatostatin receptor (β-adrenergicreceptor) | IC50 ([2]; also printed as 9.3×10^-9 M) |
| --- | --- | --- | --- | --- | --- | --- | --- | --- | --- | --- | --- |
| 2-(1H-indol-3-yl)ethyl-6-O-(5-aminopentyl)-2,4-di-O-deoxy-β-D-glucopyranoside [Compound 2] | 180 nM | 1300 nM | ~1000 nM |  |  |  |  |  |  |  |  |
| NCCCCCOC[C@H]1O[C@@H](OCCc2c[nH]c3ccccc23)[C@H](OCc2ccccc2)[C@@H](OCc2ccccc2)[C@@H]1OCc1ccccc1 [Compound 1, 2-(1H-Indol-3yl)ethyl-6-O-(5-aminopentyl)-2,3,4-tri-O-benzyl-β-D-glucopyranoside] | 120 nM | 9500 nM | ~9500 nM | ~70% | 45% | 55% | 82% | 20% | 83% | five fold higher concentration |  |
| C[C@H](N)C(=O)NCC(=O)N[C@H]1CSSC[C@@H](C(=O)O)NC(=O)[C@H](CO)NC(=O)[C@H]([C@@H](C)O)NC(=O)[C@H](Cc2ccccc2)NC(=O)[C@H]([C@@H](C)O)NC(=O)[C@H](CCCCN)NC(=O)[C@H](Cc2c[nH]c3ccccc23)NC(=O)[C@H](Cc2ccccc2)NC(=O)[C@H](Cc2ccccc2)NC(=O)[C@H](CC(N)=O)NC(=O)[C@H](CCCCN)NC1=O [SRIF, somatostatin, reference compound] |  | 9.3 nM |  |  |  |  |  |  |  |  | ~9.3 nM |
